Test: recombinant UMI read abundance after kanamycin selection (control-corrected) (log10(CPM+1)); higher = more efficient recombination; extreme values may be limits of the assay; sequences stand for … in AGTGCAGAGAAAATCGGCCAGTTTTCTCTGCCTGCAGTCCGCATGCCGTGGGACCCCTTGGGTTCTAACCTGTTGCCTAGATTTATGCAGCGGACTGCCTTTCTCCCAAAGTGATAAACCGG…AGGTTGGTTTCACT; site = the 11-nt donor
Outline: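 Values, expressed as log10(CPM+1), derive from recombinant UMI counts converted to CPM, averaged across replicates and scaled by control-derived factors. Plating was with IPTG (0.07 mM) plus kanamycin or unselected, two replicates each. The screen pooled donor and donor-binding-loop pairs for the IS621 bridge recombinase in Escherichia coli.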
In the case of “CGTGTAACATGGACCGGTTTTCCCGGTAATCCGTATTTGCG (site CGTGTAACTCG)”, the “recombinant UMI read abundance (log10)” value is reported as 1.78. With “GTTCATGCATGGACCGGTTTTCCCGGTAATCCGTATTTGGT (site GTGCATGCTAC)” the “recombinant UMI read abundance (log10)” value was 0.477. With “CGGAATTCATGGACCGGTTTTCCCGGTAATCCGTATTTGTT (site CGGAATTCTAA)” the “recombinant UMI read abundance (log10)” value was 2.72. In the case of “ACATAGACATGGACCGGTTTTCCCGGTAATCCGTATTTGGG (site ACATAGACTCC)”, the “recombinant UMI read abundance (log10)” value is reported as 0.469. With “TTCTATTCATGGACCGGTTTTCCCGGTAATCCGTATTTGCT (site TTCTATTCTAG)” the “recombinant UMI read abundance (log10)” value was 0. For “CAGAGTCCATGGACCGGTTTTCCCGGTAATCCGTATTTGTT (site CGGAATCCTAA)”, the “recombinant UMI read abundance (log10)” value was 0. In the case of “CGATCGACATGGACCGGTTTTCCCGGTAATCCGTATTTGCT (site CGATCGACTAT)”, the “recombinant UMI read abundance (log10)” value is reported as 0.0395. For “GTTGTTCCATGGACCGGTTTTCCCGGTAATCCGTATTTGGT (site GTTCTTCCTAC)”, the “recombinant UMI read abundance (log10)” value was 0.0166. For “ACACGGACATGGACCGGTTTTCCCGGTAATCCGTATTTGCT (site ACACGGACTAG)”, the “recombinant UMI read abundance (log10)” value was 2.76. With “GTGGAGGCATGGACCGGTTTTCCCGGTAATCCGTATTTGTG (site GTGAAGGCTCA)” the “recombinant UMI read abundance (log10)” value was 1.1. For “TAATACTCATGGACCGGTTTTCCCGGTAATCCGTATTTGCA (site TTATACTCTTG)”, the “recombinant UMI read abundance (log10)” value was 1.68. In the case of “CGGCCTCCATGGACCGGTTTTCCCGGTAATCCGTATTTGTT (site CGGCCTCCTAA)”, the “recombinant UMI read abundance (log10)” value is reported as 0.0159. With “GGCCACCCATGGACCGGTTTTCCCGGTAATCCGTATTTGCG (site GGCCACCCTCG)” the “recombinant UMI read abundance (log10)” value was 0.00687. In the case of “GGTCCGACATGGACCGGTTTTCCCGGTAATCCGTATTTGTA (site GGTCCGACTTA)”, the “recombinant UMI read abundance (log10)” value is reported as 0.0268. In the case of “GGGGTAGCATGGACCGGTTTTCCCGGTAATCCGTATTTGTC (site GGGGTAGCTGA)”, the “recombinant UMI read abundance (log10)” value is reported as 2.71. In the case of “AAGCACGCATGGACCGGTTTTCCCGGTAATCCGTATTTGGT (site AAGCACGCTTC)”, the “recombinant UMI read abundance (log10)” value is reported as 0.427. With “GGCAGAGCATGGACCGGTTTTCCCGGTAATCCGTATTTGCC (site GGCAGAGCTGG)” the “recombinant UMI read abundance (log10)” value was 0. With “GTGGAGGCATGGACCGGTTTTCCCGGTAATCCGTATTTGTG (site GCGGAGGCTCA)” the “recombinant UMI read abundance (log10)” value was 0.6. For “TCGATAGCATGGACCGGTTTTCCCGGTAATCCGTATTTGGG (site TCGATAGCTCC)”, the “recombinant UMI read abundance (log10)” value was 0.00329. In the case of “GGCCACCCATGGACCGGTTTTCCCGGTAATCCGTATTTGCT (site GGCCACCCTAG)”, the “recombinant UMI read abundance (log10)” value is reported as 0. With “CCCAGATCATGGACCGGTTTTCCCGGTAATCCGTATTTGTC (site CCCACATCTGA)” the “recombinant UMI read abundance (log10)” value was 0. With “AATGTAACATGGACCGGTTTTCCCGGTAATCCGTATTTGGT (site AATGTAACTAA)” the “recombinant UMI read abundance (log10)” value was 0.557. With “TCAGAGACATGGACCGGTTTTCCCGGTAATCCGTATTTGCG (site TCAAAGACTCG)” the “recombinant UMI read abundance (log10)” value was 1.55. In the case of “ACCTGGGCATGGACCGGTTTTCCCGGTAATCCGTATTTGTC (site ACCTGGGCTGA)”, the “recombinant UMI read abundance (log10)” value is reported as 0. With “AGGCTAGCATGGACCGGTTTTCCCGGTAATCCGTATTTGTT (site AGACTAGCTAA)” the “recombinant UMI read abundance (log10)” value was 0.334. With “CAATGCCCATGGACCGGTTTTCCCGGTAATCCGTATTTGCT (site CAATGCCCTAG)” the “recombinant UMI read abundance (log10)” value was 1.34. In the case of “GGAGTGGCATGGACCGGTTTTCCCGGTAATCCGTATTTGGT (site AGAGTGGCTAC)”, the “recombinant UMI read abundance (log10)” value is reported as 0.902. In the case of “CGCTAATCATGGACCGGTTTTCCCGGTAATCCGTATTTGGG (site CGCTAATCTCC)”, the “recombinant UMI read abundance (log10)” value is reported as 1.5. With “CACGGCCCATGGACCGGTTTTCCCGGTAATCCGTATTTGTT (site CATGGCCCTAA)” the “recombinant UMI read abundance (log10)” value was 0.013. In the case of “TGTTCCTCATGGACCGGTTTTCCCGGTAATCCGTATTTGTA (site TGTTCCTCTTA)”, the “recombinant UMI read abundance (log10)” value is reported as 1.06. For “GACCACCCATGGACCGGTTTTCCCGGTAATCCGTATTTGTT (site GCCCACCCTAA)”, the “recombinant UMI read abundance (log10)” value was 0.0164. In the case of “CAAACATCATGGACCGGTTTTCCCGGTAATCCGTATTTGTA (site CAAACATCTTA)”, the “recombinant UMI read abundance (log10)” value is reported as 2.53. For “GCTAAAACATGGACCGGTTTTCCCGGTAATCCGTATTTGCT (site GCTAAAACTAG)”, the “recombinant UMI read abundance (log10)” value was 1.01. For “AGCTTTCCATGGACCGGTTTTCCCGGTAATCCGTATTTGGA (site AGCTTTCCTTC)”, the “recombinant UMI read abundance (log10)” value was 0.00277. For “CATGCGCCATGGACCGGTTTTCCCGGTAATCCGTATTTGTG (site CATGCGCCTCA)”, the “recombinant UMI read abundance (log10)” value was 0.0238. In the case of “ATTGAAACATGGACCGGTTTTCCCGGTAATCCGTATTTGGT (site ATTGAAACTAC)”, the “recombinant UMI read abundance (log10)” value is reported as 1.66. For “CGATCATCATGGACCGGTTTTCCCGGTAATCCGTATTTGGT (site CGATCATCTAC)”, the “recombinant UMI read abundance (log10)” value was 1.58. With “CAGGGCCCATGGACCGGTTTTCCCGGTAATCCGTATTTGTT (site CAAGGCCCTAA)” the “recombinant UMI read abundance (log10)” value was 0. In the case of “CCTACAGCATGGACCGGTTTTCCCGGTAATCCGTATTTGAT (site CCTAGAGCTAT)”, the “recombinant UMI read abundance (log10)” value is reported as 0. In the case of “AGTTATGCATGGACCGGTTTTCCCGGTAATCCGTATTTGGA (site AATTATGCTTC)”, the “recombinant UMI read abundance (log10)” value is reported as 0.159. With “CAGTTAGCATGGACCGGTTTTCCCGGTAATCCGTATTTGTG (site CCGTTAGCTCA)” the “recombinant UMI read abundance (log10)” value was 0.0219. For “GCGGCGACATGGACCGGTTTTCCCGGTAATCCGTATTTGGC (site GCGGCGACTGC)”, the “recombinant UMI read abundance (log10)” value was 1.99. In the case of “CAAATCACATGGACCGGTTTTCCCGGTAATCCGTATTTGGG (site CAATTCACTCC)”, the “recombinant UMI read abundance (log10)” value is reported as 0.0243. With “TCGGATCCATGGACCGGTTTTCCCGGTAATCCGTATTTGTC (site TCGGATCCTGA)” the “recombinant UMI read abundance (log10)” value was 0.795. In the case of “TCCCACCCATGGACCGGTTTTCCCGGTAATCCGTATTTGCA (site TCCCACCCTTG)”, the “recombinant UMI read abundance (log10)” value is reported as 0. In the case of “GAGAATCCATGGACCGGTTTTCCCGGTAATCCGTATTTGTT (site GAGAATCCTAA)”, the “recombinant UMI read abundance (log10)” value is reported as 0. For “CAATTAACATGGACCGGTTTTCCCGGTAATCCGTATTTGTT (site CAATTAACTAA)”, the “recombinant UMI read abundance (log10)” value was 0.00834. For “GCGTACGCATGGACCGGTTTTCCCGGTAATCCGTATTTGTT (site GCGTACGCTAA)”, the “recombinant UMI read abundance (log10)” value was 1.84. With “CCCTTCCCATGGACCGGTTTTCCCGGTAATCCGTATTTGGG (site CCCTTCGCTCC)” the “recombinant UMI read abundance (log10)” value was 0.00355. With “CGAGGGCCATGGACCGGTTTTCCCGGTAATCCGTATTTGGG (site CGAGGCCCTCC)” the “recombinant UMI read abundance (log10)” value was 0.0184. For “CTATAAACATGGACCGGTTTTCCCGGTAATCCGTATTTGGA (site CTATAAACTTC)”, the “recombinant UMI read abundance (log10)” value was 2.34. In the case of “GGCCGTACATGGACCGGTTTTCCCGGTAATCCGTATTTGCT (site TGCCGTACTAG)”, the “recombinant UMI read abundance (log10)” value is reported as 0.302. In the case of “CATTGCTCATGGACCGGTTTTCCCGGTAATCCGTATTTGAA (site CAATGCTCTTT)”, the “recombinant UMI read abundance (log10)” value is reported as 0.335. For “CCTAATACATGGACCGGTTTTCCCGGTAATCCGTATTTGGC (site CCTAATTCTGC)”, the “recombinant UMI read abundance (log10)” value was 0. With “GCCGAGCCATGGACCGGTTTTCCCGGTAATCCGTATTTGTA (site GCCGAGCCTTA)” the “recombinant UMI read abundance (log10)” value was 0.381. For “CTCATATCATGGACCGGTTTTCCCGGTAATCCGTATTTGTC (site CGCATATCTGA)”, the “recombinant UMI read abundance (log10)” value was 0. For “GGCGATCCATGGACCGGTTTTCCCGGTAATCCGTATTTGAA (site GGCGATCCTTT)”, the “recombinant UMI read abundance (log10)” value was 0.785.
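Also: IS621 bridge recombinase in Escherichia coli cells against a fixed T5 target plasmid.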
